ChEMBL document CHEMBL2203118, “Ethyl 2,4,6-trihydroxybenzoate is an agonistic ligand for liver X receptor that induces cholesterol efflux from macrophages without affecting lipid accumulation in HepG2 cells” (Bioorg Med Chem Lett, 2012)
Activity calls are given as the source filed them. The rule behind the calls is not given here.

Legend:
[1] = target: T1, Liver X receptor (Homo sapiens) (UniProt Q13133+P55055); assay: Agonist activity at LXR in human THP1 cells assessed as induction of ABCG1 gene expression at 100 uM after 48 hrs by immunoblot analysis relative to control; format: functional, cell-based; conditions: THP-1
HepG2 [2] = assay: Induction of lipid accumulation in human HepG2 cells assessed as increase in cellular triglyceride level by Dil staining relative to control; format: cell-based
[3] = target: T2, Oxysterols receptor LXR-alpha (Homo sapiens) (UniProt Q13133); assay: Agonist activity at LXR-alpha in human THP1 cells assessed as reduced cellular cholesterol concentration; format: functional, cell-based; conditions: THP-1
T2 sequence (whole entry): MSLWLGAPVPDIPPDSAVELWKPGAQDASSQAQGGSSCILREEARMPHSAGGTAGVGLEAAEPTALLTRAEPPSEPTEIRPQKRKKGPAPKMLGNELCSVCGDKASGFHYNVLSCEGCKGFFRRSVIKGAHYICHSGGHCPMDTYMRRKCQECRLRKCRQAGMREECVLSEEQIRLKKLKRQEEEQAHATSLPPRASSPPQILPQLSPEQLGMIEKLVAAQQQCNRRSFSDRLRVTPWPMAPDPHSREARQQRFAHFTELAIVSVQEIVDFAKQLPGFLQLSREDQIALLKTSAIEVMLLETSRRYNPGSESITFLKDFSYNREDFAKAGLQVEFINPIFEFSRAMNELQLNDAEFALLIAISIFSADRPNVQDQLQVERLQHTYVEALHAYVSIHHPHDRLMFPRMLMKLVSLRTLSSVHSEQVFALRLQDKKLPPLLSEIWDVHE

HepG2 [4] = assay: Upregulation of ACOX gene expression in human HepG2 at 100 uM by qPCR analysis relative to control; format: functional, cell-based
HepG2 [5] = assay: Upregulation of CPT-1 gene expression in human HepG2 at 100 uM by qPCR analysis relative to control; format: functional, cell-based
HepG2 [6] = assay: Upregulation of SREBP-1 gene expression in human HepG2 cells at 50 to 100 uM by immunoblot analysis; format: ADME, cell-based; conditions: hepg2, 100 µM
HepG2 [7] = assay: Upregulation of FAS gene expression in human HepG2 cells at 50 to 100 uM by qPCR analysis; format: ADME, cell-based; conditions: hepg2, 100 µM
HepG2 [8] = assay: Upregulation of SREBP-1 gene expression in human HepG2 cells at 50 to 100 uM by qPCR analysis relative to control relative to control; format: ADME, cell-based; conditions: hepg2, 100 µM
HepG2 [9] = assay: Reduction in SCD-1 gene expression in human HepG2 cells at 100 uM by qPCR analysis relative to control; format: functional; design: scale not given: the % may be the effect or the level left
HepG2 [10] = assay: Reduction in SCD-1 gene expression in human HepG2 cells at 50 uM by qPCR analysis relative to control; format: functional; design: scale not given: the % may be the effect or the level left
HepG2 [11] = assay: Induction of lipid accumulation in human HepG2 cells assessed as increase in cellular triglyceride level at 50 to 100 uM by Oil Red O staining relative to control; format: cell-based; conditions: hepg2, 100 µM
HepG2 [12] = assay: Induction of lipid accumulation in human HepG2 cells assessed as cellular triglyceride concentration at 50 to 100 uM; format: cell-based; conditions: hepg2, 100 µM
[13] = target: T1, Liver X receptor (Homo sapiens); assay: Agonist activity at LXR in human Caco2 cells assessed as decrease in NPC1L1 mRNA level at 100 uM after 48 hrs by qPCR analysis relative to control; format: functional, cell-based; design: scale not given: the % may be the effect or the level left; conditions: Caco-2
[14] = target: T1, Liver X receptor (Homo sapiens); assay: Agonist activity at LXR in human Caco2 cells assessed as increase in ABCG8 mRNA level at 100 uM after 48 hrs by qPCR analysis relative to control; format: functional, cell-based; conditions: Caco-2
[15] = target: T1, Liver X receptor (Homo sapiens); assay: Agonist activity at LXR in human Caco2 cells assessed as increase in ABCG5 mRNA level at 100 uM after 48 hrs by qPCR analysis relative to control; format: functional, cell-based; conditions: Caco-2
[16] = target: T1, Liver X receptor (Homo sapiens); assay: Agonist activity at LXR in human Caco2 cells assessed as increase in ABCA1 mRNA level at 100 uM after 48 hrs by qPCR analysis relative to control; format: functional, cell-based; conditions: Caco-2
[17] = target: T1, Liver X receptor (Homo sapiens); assay: Agonist activity at LXR in human THP1 cells assessed as increase in ApoE mRNA level at 100 uM after 48 hrs by qPCR analysis relative to control; format: functional, cell-based; conditions: THP-1
[18] = Agonist activity at LXR in mouse RAW 264.7 assessed as increase in ABCG1mRNA level at 100 uM after 48 hrs by qPCR analysis relative to control; format: functional
[19] = target: T1, Liver X receptor (Homo sapiens); assay: Agonist activity at LXR in human THP1 monocytes assessed as increase in ABCG1 mRNA level at 100 uM after 48 hrs by qPCR analysis relative to control; format: functional, cell-based
[20] = Agonist activity at LXR in mouse RAW 264.7 assessed as induction of ABCA1 mRNA expression at 100 uM after 48 hrs by qPCR analysis relative to control; format: functional
[21] = target: T1, Liver X receptor (Homo sapiens); assay: Agonist activity at LXR in human THP1 cells assessed as induction of ABCA1 mRNA expression at 100 uM after 48 hrs by qPCR analysis relative to control; format: functional, cell-based; conditions: THP-1

T1 sequence (P55055 whole entry, looked up, one chain of several): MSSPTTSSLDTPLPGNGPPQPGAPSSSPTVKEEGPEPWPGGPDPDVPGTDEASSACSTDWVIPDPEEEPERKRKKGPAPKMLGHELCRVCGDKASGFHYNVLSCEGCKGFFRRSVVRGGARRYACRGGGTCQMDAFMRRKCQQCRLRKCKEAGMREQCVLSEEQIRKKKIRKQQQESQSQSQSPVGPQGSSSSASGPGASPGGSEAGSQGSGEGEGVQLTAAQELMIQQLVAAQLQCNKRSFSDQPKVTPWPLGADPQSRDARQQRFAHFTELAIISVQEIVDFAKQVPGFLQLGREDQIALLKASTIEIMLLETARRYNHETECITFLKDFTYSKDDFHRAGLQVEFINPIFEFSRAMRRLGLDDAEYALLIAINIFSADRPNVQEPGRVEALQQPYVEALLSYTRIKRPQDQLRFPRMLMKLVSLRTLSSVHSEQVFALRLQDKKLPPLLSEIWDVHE

Activity [1]: Active | Activity [3]: Dose-dependent effect | Activity [13]: 33.2% | fold change (FC) [14]: 1.5 | fold change (FC) [15]: 12.6 | fold change (FC) [16]: 2.1 | fold change (FC) [17]: 1.9 | fold change (FC) [19]: 5.2 | fold change (FC) [21]: 7.4
SMILES: CCOC(=O)c1c(O)cc(O)cc1O
Activity (HepG2 [2]): Non-toxic | Activity (HepG2 [4]): Active | Activity (HepG2 [5]): Active | Activity (HepG2 [6]): Non-toxic | Activity (HepG2 [7]): Non-toxic | Activity (HepG2 [8]): Non-toxic | Activity (HepG2 [9]): 54.09% | Activity (HepG2 [10]): 47.6% | Activity (HepG2 [11]): Non-toxic | Activity (HepG2 [12]): Non-toxic | fold change (FC) [18]: 2.9 | fold change (FC) [20]: 2.1
